The target of assay [1] is T1, KRas-mediated phosphorylation of ERK in MKN1 cells (Homo sapiens, UniProt P01116).
T1 construct: pERK HTRF read-out
Description: Inhibition of KRas-mediated phosphorylation of ERK (HTRF), MKN1 cells. Format: cell-based. The settings on record: MKN1 cells (KRas WT); HTRF pERK; 3 h incubation. How it is done: Inhibition of KRas Phosphorylation of ERK (HTRF) by Exemplary Compounds of Formula (Ia) or (Ib)
Cisbio HTRF Advanced pERK Assay Catalog #64AERPEH • Cells: MKN1, PSN1 • Procedure: • 1. Day 1: Seed 6,000 cells/well −25 μl/well in 384-well white solid bottom plate; RPM1_10% FBS. Incubate overnight at 37 °C/5% CO2. • 2.
On the technique in general: In TR-FRET formats the signal depends on donor and acceptor labels being close together.

Assay [2] deals with T2, KRas-mediated phosphorylation of ERK in A549 cells (Homo sapiens, UniProt P01116, G12S).
T2 construct: pERK HTRF read-out
Put plainly: Inhibition of KRas-mediated phosphorylation of ERK (HTRF), A549 cells. Format: cell-based. The settings on record: HTRF pERK, 3 h incubation.

Assay [3] has as its target T3, KRas-mediated phosphorylation of ERK in H358 cells (Homo sapiens, UniProt P01116, G12C).
T3 construct: pERK HTRF read-out
Put plainly: Inhibition of KRas-mediated phosphorylation of ERK (HTRF), H358 cells. The settings on record: HTRF pERK, 3 h incubation. Format: cell-based.

The next assay deals with T4, KRas G12C (Homo sapiens, UniProt P01116, G12C).
T4 construct: Biotinylated KRas (corresponding to amino acids 1-169, produced at Accelegan Inc.); biotin (biotinylated); purchased Accelegan Inc
Put plainly: KRas binding assay, TR-FRET displacement of Cy5 labelled tracer. The settings on record: 60-minute incubation at room temperature, 1% DMSO, pH 7.5. A digest of the protocol: (§1)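 Each mutant protein, a biotinylated 1-169 construct, was combined with terbium streptavidin, tracer and compound. After sixty minutes at room temperature TR-FRET was recorded. POC data were fitted with a four-parameter IC50 model.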

For a further assay, the target named is T5, KRas G12S (Homo sapiens, UniProt P01116, G12S).
T5 construct: Biotinylated KRas (corresponding to amino acids 1-169, produced at Accelegan Inc.); biotin (biotinylated); purchased Accelegan Inc
Described as above. The settings on record: 60-minute incubation at room temperature, 1% DMSO, pH 7.5. In a few lines:
as §1

The target in the next assay is T6, KRas WT (Homo sapiens, UniProt P01116).
T6 construct: Biotinylated KRas (corresponding to amino acids 1-169, produced at Accelegan Inc.); biotin (biotinylated); purchased Accelegan Inc
The description is as above. The settings on record: 60-minute incubation at room temperature, 1% DMSO, pH 7.5. A digest of the protocol: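 Biotinylated KRas (residues 1-169) was incubated with tracer, terbium-streptavidin and compound at 1% DMSO final in 50 mM HEPES pH 7.5 containing 5 mM MgCl2, 0.005% Tween-20 and 1 mM DTT. The plate was read after 60 min at room temperature, and percent-of-control data were fit to a 4-parameter IC50 equation.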

Bounds are passed on as bounds.

T5 sequence (P01116 1-169 isoform P01116-2 G12S): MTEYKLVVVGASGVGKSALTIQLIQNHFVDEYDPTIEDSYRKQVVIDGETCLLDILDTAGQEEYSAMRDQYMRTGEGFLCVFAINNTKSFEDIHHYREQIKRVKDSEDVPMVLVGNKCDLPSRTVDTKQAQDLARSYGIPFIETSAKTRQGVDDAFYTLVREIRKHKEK
T2 sequence (P01116 1-188 isoform P01116-2 G12S): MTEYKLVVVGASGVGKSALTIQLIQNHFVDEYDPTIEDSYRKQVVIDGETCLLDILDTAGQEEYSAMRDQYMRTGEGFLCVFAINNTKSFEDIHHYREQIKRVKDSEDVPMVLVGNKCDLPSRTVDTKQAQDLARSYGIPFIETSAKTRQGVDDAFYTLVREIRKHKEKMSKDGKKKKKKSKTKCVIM
T6 sequence (P01116 1-169 isoform P01116-2): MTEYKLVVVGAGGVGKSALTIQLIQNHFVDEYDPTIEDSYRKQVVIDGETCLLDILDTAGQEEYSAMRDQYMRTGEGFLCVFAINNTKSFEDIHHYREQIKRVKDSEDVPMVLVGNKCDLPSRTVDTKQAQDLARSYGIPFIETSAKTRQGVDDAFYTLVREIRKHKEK
T1 sequence (P01116 1-188 isoform P01116-2): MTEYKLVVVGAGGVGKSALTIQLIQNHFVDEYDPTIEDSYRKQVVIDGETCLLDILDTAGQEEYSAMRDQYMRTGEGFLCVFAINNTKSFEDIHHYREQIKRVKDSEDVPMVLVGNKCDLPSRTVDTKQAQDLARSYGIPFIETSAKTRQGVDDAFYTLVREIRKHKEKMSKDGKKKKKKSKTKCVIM
T3 sequence (P01116 1-188 isoform P01116-2 G12C): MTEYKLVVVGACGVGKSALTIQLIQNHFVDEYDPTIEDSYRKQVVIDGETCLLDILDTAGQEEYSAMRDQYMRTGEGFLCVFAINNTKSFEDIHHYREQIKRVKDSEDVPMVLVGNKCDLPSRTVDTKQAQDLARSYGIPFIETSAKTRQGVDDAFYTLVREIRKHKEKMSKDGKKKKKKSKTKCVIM
T4 sequence (P01116 1-169 isoform P01116-2 G12C): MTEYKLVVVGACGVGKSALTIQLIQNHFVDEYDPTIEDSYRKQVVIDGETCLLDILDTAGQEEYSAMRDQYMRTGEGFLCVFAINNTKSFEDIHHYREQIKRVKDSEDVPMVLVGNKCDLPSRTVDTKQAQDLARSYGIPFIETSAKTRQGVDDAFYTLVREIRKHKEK

Take `CN(CCN(C)c1nc(OC[C@@]23CCCN2C[C@H](F)C3)nc2c(F)c(-c3ccc(F)c4sc(N)c(C#N)c34)c(Cl)cc12)C(=O)n1nccn1` (single isomer, unassigned) [Example 202]: the IC50 in assay [1] is 142 nM; in assay [2] it was 1480 nM; in assay [3] it was 23 nM; on KRas G12C it was < 2 nM; on KRas G12S it was 2 nM; on KRas WT it was 4 nM.

As to `CC(=O)N(C)C(=O)CCCN(C)c1cc(O[C@@H](C)[C@@H]2CCCN2C)nc(-c2cc([C@]3(C)CCCc4sc(N)c(C#N)c43)sn2)n1` [Example 319, N-acetyl-4-((2-(5-((R)-2-amino-3-cyano-4-methyl-4,5,6,7-tetrahydrobenzo[b]thiophen-4-yl)isothiazol-3-yl)-6-((S)-1-((S)-1-methylpyrrolidin-2-yl)ethoxy)pyrimidin-4-yl)(methyl)amino)-N-methylbutanamide], the IC50 in assay [1] was > 10000 nM; in assay [2], > 10000 nM; in assay [3] it was > 10000 nM; at KRas G12C, > 100000 nM; at KRas G12S, > 100000 nM; at KRas WT, > 100000 nM.

Regarding `N#Cc1c(N)sc2c(F)ccc(-c3c(Cl)cc4c(N5CCC(C(=O)Oc6cccc(F)c6)CC5)nc(OC[C@@]56CCCN5C[C@H](F)C6)nc4c3F)c12` [Example 302, 3-fluorophenyl 1-(7-(2-amino-3-cyano-7-fluorobenzo[b]thiophen-4-yl)-6-chloro-8-fluoro-2-(((2R,7aS)-2-fluorotetrahydro-1H-pyrrolizin-7a(5H)-yl)methoxy)quinazolin-4-yl)piperidine-4-carboxylate], the IC50 was 286 nM in assay [1]; 79 nM in assay [2]; 18 nM in assay [3]; 12 nM on KRas G12C; 25 nM on KRas G12S; 164 nM on KRas WT.

With `N#Cc1c(N)sc2c(F)ccc(-c3c(Cl)cc4c(N5CCCC(C(=O)n6ccc(C7CC7)n6)CC5)nc(OC[C@@]56CCCN5C[C@H](F)C6)nc4c3F)c12` (stereo partly drawn) [Example 189, 2-amino-4-(6-chloro-4-(4-(3-cyclopropyl-1H-pyrazole-1-carbonyl)azepan-1-yl)-8-fluoro-2-(((2R,7aS)-2-fluorotetrahydro-1H-pyrrolizin-7a(5H)-yl)methoxy)quinazolin-7-yl)-7-fluorobenzo[b]thiophene-3-carbonitrile], the IC50 in assay [1] amounted to 199 nM; in assay [2], 27 nM; in assay [3] it was 43 nM; at KRas G12C it was 13 nM; at KRas G12S, 8 nM; at KRas WT it was 24 nM.

Regarding `CCc1c(F)ccc2cc(O)cc(-c3ncc4c(NC[C@H]5C[C@@H]5C(=O)n5ccc(C)n5)nc(OC[C@@]56CCCN5C[C@H](F)C6)nc4c3F)c12` [Example 159, ((1S,2S)-2-(((7-(8-ethyl-7-fluoro-3-hydroxynaphthalen-1-yl)-8-fluoro-2-(((2R,7aS)-2-fluorotetrahydro-1H-pyrrolizin-7a(5H)-yl)methoxy)pyrido[4,3-d]pyrimidin-4-yl)amino)methyl)cyclopropyl)(3-methyl-1H-pyrazol-1-yl)methanone], the IC50 was found to be 57 nM in assay [1]; 6 nM in assay [2]; 108 nM in assay [3]; 6 nM on KRas G12C; 4 nM on KRas G12S; 15 nM on KRas WT.

For the compound `CCc1c(F)ccc2cc(O)cc(-c3ncc4c(N5CCC(C(=O)NC(C)=O)CC5)nc(OC[C@@]56CCCN5C[C@H](F)C6)nc4c3F)c12` [Example 212, N-acetyl-1-(7-(8-ethyl-7-fluoro-3-hydroxynaphthalen-1-yl)-8-fluoro-2-(((2R,7aS)-2-fluorotetrahydro-1H-pyrrolizin-7a(5H)-yl)methoxy)pyrido[4,3-d]pyrimidin-4-yl)piperidine-4-carboxamide], the IC50 in assay [1] is 868 nM; in assay [2] it was > 10000 nM; in assay [3], 4600 nM; on KRas G12C, 623 nM; at KRas G12S it was 371 nM; on KRas WT, 165 nM.

Consider `N#Cc1c(N)sc2c(F)ccc(-c3c(Cl)cc4c(N5CCN(C(=O)n6ccnc6)CC5)nc(OC[C@@]56CCCN5C[C@H](F)C6)nc4c3F)c12` [Example 231, 4-(4-(4-(1H-imidazole-1-carbonyl)piperazin-1-yl)-6-chloro-8-fluoro-2-(((2R,7aS)-2-fluorotetrahydro-1H-pyrrolizin-7a(5H)-yl)methoxy)quinazolin-7-yl)-2-amino-7-fluorobenzo[b]thiophene-3-carbonitrile], for which the IC50 turned out to be 25 nM in assay [1]; 444 nM in assay [2]; 4 nM in assay [3]; 5 nM on KRas G12C; 17 nM at KRas G12S; 13 nM at KRas WT.

In the case of `CCc1c(F)ccc2cc(O)cc(-c3ncc4c(N5CCC(C(=O)Oc6ccccc6)CC5)nc(OC[C@@]56CCCN5C[C@H](F)C6)nc4c3F)c12` [Example 39, phenyl 1-(7-(8-ethyl-7-fluoro-3-hydroxynaphthalen-1-yl)-8-fluoro-2-(((2R,7aS)-2-fluorotetrahydro-1H-pyrrolizin-7a(5H)-yl)methoxy)pyrido[4,3-d]pyrimidin-4-yl)piperidine-4-carboxylate], the IC50 in assay [1] amounted to 1360 nM; in assay [2], 6550 nM; in assay [3], 808 nM; at KRas G12C, 13 nM; at KRas G12S, 1590 nM; on KRas WT it was 195 nM.

With `N#Cc1c(N)sc2c(F)ccc(-c3c(Cl)cc4c(N5CCC(C(=O)Oc6ccc(Cl)cc6)CC5)nc(OC[C@@]56CCCN5C[C@H](F)C6)nc4c3F)c12` [Example 301, 4-chlorophenyl 1-(7-(2-amino-3-cyano-7-fluorobenzo[b]thiophen-4-yl)-6-chloro-8-fluoro-2-(((2R,7aS)-2-fluorotetrahydro-1H-pyrrolizin-7a(5H)-yl)methoxy)quinazolin-4-yl)piperidine-4-carboxylate], the IC50 came to 264 nM in assay [1]; 113 nM in assay [2]; 20 nM in assay [3]; 16 nM on KRas G12C; 43 nM on KRas G12S; 142 nM on KRas WT.

As to `CCc1c(F)ccc2cc(O)cc(-c3ncc4c(N5CCN(C(=O)n6ccc(C)n6)C(C(F)(F)F)C5)nc(OC[C@@]56CCCN5C[C@H](F)C6)nc4c3F)c12` (stereo partly drawn) [Example 127, (4-(7-(8-ethyl-7-fluoro-3-hydroxynaphthalen-1-yl)-8-fluoro-2-(((2R,7aS)-2-fluorotetrahydro-1H-pyrrolizin-7a(5H)-yl)methoxy)pyrido[4,3-d]pyrimidin-4-yl)-2-(trifluoromethyl)piperazin-1-yl)(3-methyl-1H-pyrazol-1-yl)methanone], the IC50 is 514 nM in assay [1]; 7190 nM in assay [2]; 635 nM in assay [3]; 224 nM at KRas G12C; 407 nM at KRas G12S; 193 nM on KRas WT.

Consider `CCc1c(F)ccc2cc(O)cc(-c3ncc4c(N(C)CCNC(=O)n5nccn5)nc(OC[C@@]56CCCN5C[C@H](F)C6)nc4c3F)c12` [Example 251, N-(2-((7-(8-ethyl-7-fluoro-3-hydroxynaphthalen-1-yl)-8-fluoro-2-(((2R,7aS)-2-fluorotetrahydro-1H-pyrrolizin-7a(5H)-yl)methoxy)pyrido[4,3-d]pyrimidin-4-yl)(methyl)amino)ethyl)-2H-1,2,3-triazole-2-carboxamide], for which the IC50 stood at 1280 nM in assay [1]; 5440 nM in assay [2]; 66 nM in assay [3]; 21 nM at KRas G12C; 65 nM at KRas G12S; 70 nM on KRas WT.

On to `CC(=O)N(C)C(=O)C1CCN(c2nc(OC[C@@]34CCCN3C[C@H](F)C4)nc3c(F)c(-c4ccc(F)c5sc(N)c(C#N)c45)c(Cl)cc23)CC1` [Example 254, N-acetyl-1-((S)-7-(2-amino-3-cyano-7-fluorobenzo[b]thiophen-4-yl)-6-chloro-8-fluoro-2-(((2R,7aS)-2-fluorotetrahydro-1H-pyrrolizin-7a(5H)-yl)methoxy)quinazolin-4-yl)-N-methylpiperidine-4-carboxamide], for which the IC50 in assay [1] turned out to be 18 nM; in assay [2], 5 nM; in assay [3], 29 nM; on KRas G12C, 3 nM; on KRas G12S, 3 nM; at KRas WT, 4 nM.

As to `CN(C)Cc1ccn(C(=O)C2CCCN(c3nc(OC[C@@]45CCCN4C[C@H](F)C5)nc4c(F)c(-c5ccc(F)c6sc(N)c(C#N)c56)c(Cl)cc34)CC2)n1` (stereo partly drawn) [Example 205, 2-amino-4-(6-chloro-4-(4-(3-((dimethylamino)methyl)-1H-pyrazole-1-carbonyl)azepan-1-yl)-8-fluoro-2-(((2R,7aS)-2-fluorotetrahydro-1H-pyrrolizin-7a(5H)-yl)methoxy)quinazolin-7-yl)-7-fluorobenzo[b]thiophene-3-carbonitrile], the IC50 in assay [1] was found to be 540 nM; in assay [2], 25 nM; in assay [3], 59 nM; at KRas G12C, 2 nM; at KRas G12S it was 4 nM; at KRas WT, 7 nM.

The IC50 is the concentration needed to halve the response being measured. Lower therefore signals inhibition by little substance.

(Values after patent US20260356856A1, “KRAS G12S AND G12C INHIBITORS” (MIRATI THERAPEUTICS, INC., priority 2023, published 2026).)
